Reference: US5760036A, “Aminediol protease inhibitors” (E. R. Squibb & Sons, Inc., priority 1995, dated 1998)
Like-named read-outs stand apart in the source and are kept apart here.

Key:
HIV protease = biological target: T1, HIV protease (Human immunodeficiency virus type 1 group M subtype B, UniProt P04585); assay: HIV Protease Assay; assay type: biochemical
T1 construct: and purified protease
Method in brief: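 At a single final concentration of 10 μM (4% DMSO), inhibitors were added to a 30-minute, 37° C reaction of purified enzyme with 450 μM H2N-Val-Ser-Gln-Asn-(β-naphthyl-alanine)-Pro-Val-Ile-OH at pH 5.5 (sodium acetate, BSA). Hydrolysis was quantified by reverse-phase HPLC with 220 nm detection after acid quench.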

[1] = system: RF strain of HIV (CEM-SS cells); assay: Cell Culture Anti-HIV Activity (cell viability, formazan); assay type: cell-based; conditions: Human immunodeficiency virus 1, CEM-SS, 144 h, CEM-SS cells, RF strain of HIV, multiplicity of infection 0.04, 6 days at 37° C., 450 nm; read-out: HIV (CEM Cells) IC50
Method in brief: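 Half-log compound dilutions added to CEM-SS cells (5000/well) carrying HIV RF (MOI 0.04), 6 days, 37° C. Cell protection measured as formazan from tetrazolium, A450. IC50: drug level restoring infected-cell formazan to 50% of the uninfected untreated control.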

[2] = pH 5.5, 10 μM inhibitor, 4% DMSO, 450 μM substrate, pH 5.5, 30 minutes at 37° C., RP-HPLC, read-out: HIV Protease % Inhibition at 10 μM

Row | Compound | inhibition at 10 µM (HIV protease; [2]) | IC50 [1] | HIV Protease % Inhibition at 10 μM (HIV protease; 10 μM inhibitor, 4% DMSO, 450 μM substrate, pH 5.5, 30 minutes at 37° C., RP-HPLC) | inhibition at 10 µM (HIV protease; pH 5.5, read-out: HIV Protease % Inhibition at 10 μM)
1 | CC(C)(C)NC(=O)N[C@@H](Cc1ccccc1)[C@H](O)CNC[C@@H](O)[C@H](Cc1ccccc1)NC(=O)OC(C)(C)C [Compound 50, [1S-[1R*,2S*(2S*,3R*)]]-[3-[[3-[[[(1,1-Dimethylethyl)amino]carbonyl]amino]-2-hydroxy-4-phenylbutyl]amino]-2-hydroxy-1-(phenylmethyl)propyl]carbamic acid, 1,1-dimethylethyl ester] | 97% | 220 nM |  | 
2 | CC(C)[C@H](NC(=O)OCc1ccc(-c2ccccc2)cc1)C(=O)N[C@@H](Cc1ccccc1)[C@H](O)CNC[C@@H](O)[C@H](Cc1ccccc1)NC(=O)OC(C)(C)C [Compound 68, [S-[1R*,2S*(2S*,3R*)]]-N^2-[([1,1-Biphenyl]-4-ylmethoxy]carbonyl-N-[3-[[3-[[(1,1-dimethylethoxy)carbonyl]amino]-2-hydroxy-4-phenylbutyl]amino]-2-hydroxy-l-(phenylmethyl)[propyl]-L-valinamide] | 99% | 110 nM |  | 
3 | O=C(N[C@@H](Cc1ccccc1)[C@H](O)CNC[C@@H](O)[C@H](Cc1ccccc1)NC(=O)OCc1ccccc1)OCc1ccccc1 [Compound 44, [R-(R*,S*)]-Iminobis[2-hydroxy-1-(phenylmethyl)-3,1-propandiyl]]biscarbamic acid, bis(phenylmethyl) ester] | 58% | > 5000 nM |  | 
4 | CC(C)(C)OC(=O)N[C@@H](Cc1ccccc1)[C@H](O)CNC[C@@H](O)[C@H](Cc1ccccc1)NC(=O)C(O)(CO)C(C)(C)C (single isomer, unassigned; isomer a) [Compound 366, [1S-[1R*,2S*(2S*,3R*)]]-[3-[[3-[[2-Hydroxy-2-(hydroxymethyl)-3.3-dimethyl-1-oxobutyl]amino]-2-hydroxy-4-phenylbutyl]amino]-2-hydroxy-1-(phenylmethyl)propyl]carbamic acid. 1.1-dimethylethyl ester, isomer A] |  | 9 nM | 99% | 
5 | CC(C)(CO)OC(=O)N[C@@H](Cc1ccccc1)[C@H](O)CNC[C@@H](O)[C@H](Cc1ccccc1)NC(=O)C1(O)CCCC1(C)C (single isomer, unassigned; isomer a) [Compound 368, [1S-[1R*,2S*(2S*,3R*)] -[3-[[3-[[(2,2-Dimethyl-1-hydroxycyclopentyl)-carbonyl]amino]-2-hydroxy-4-phenylbutyl]amino]-2-hydroxy-1-(phenylmethyl)propyl]carbamic acid, 2-hydroxy-1,1-dimethylethyl ester, isomer A] | 98% | 17 nM |  | 
6 | CC(C)(C)OC(=O)N[C@@H](Cc1ccccc1)[C@H](O)CNC[C@@H](O)[C@H](Cc1c[nH]c2ccccc12)NC(=O)OC(C)(C)C [Compound 23, [1S-[1R*,2S*(2S*,3R*)]]-[3-[[3-[[(1,1-Dimethylethoxy)carbonyl]amino]-2-hydroxy-4-(1H-indol-3-ylmethyl)butyl]amino]-2-hydroxy-1-(phenylmethyl)propyl]carbamic acid, 1,1-dimethylethyl ester] | 98% | 450 nM |  | 
7 | CC(C)(C)OC(=O)N[C@@H](Cc1ccccc1)[C@H](O)CNC[C@@H](O)[C@H](Cc1ccccc1)NC(=O)OCc1ccccc1 [Compound 45, [R-(R*,S*)]-[Iminobis[2-hydroxy-1-(phenylmethyl)-3,1-propandiyl]biscarbamic acid, 1,1-dimethylethylphenylmethyl ester] | 87% | 500 nM |  | 
8 | CC(C)(C)OC(=O)N[C@@H](Cc1ccccc1)[C@H](O)CNC[C@@H](O)[C@H](Cc1ccc(OCc2ccccc2)cc1)NC(=O)OCc1ccccc1 [Compound 17, [1S-[1R*,2S*(2S*,3R*)]]-[3-[[3-[[(1,1-Dimethylethoxy)carbonyl]amino]2-hydroxy-4-phenylbutyl]amino]-2-hydroxy-1-[[4-(phenylmethoxy)phenyl]methyl]propyl]carbamic acid, phenylmethyl ester] | 84% | > 1500 nM |  | 
9 | CCC(=O)N[C@H](C(=O)N[C@@H](Cc1ccccc1)[C@H](O)CNC[C@@H](O)[C@H](Cc1ccccc1)NC(=O)OC(C)(C)C)C(C)C (relative stereo) [Compound 248, [1R*,2S*,(2S*,3R*)]-N-[3-[[3-[[(1,1-Dimethylethoxy)carbonyl]amino]-2-hydroxy-4-phenylbutyl]amino]-2-hydroxy-1-(phenylmethyl)propyl]-N^2-(1-oxopropyl)-L-valinamide] | 99% | 230 nM |  | 
10 | COCCOc1ccc(C[C@H](NC(=O)OC(C)(C)CO)[C@H](O)CNC[C@@H](O)[C@H](Cc2ccccc2)NC(=O)OC(C)(C)C)cc1 [Compound 283, [1S-[1R*,2S*(2S*,3R*)]]-[3-[[3-[[(1,1-Dimethylethoxy)carbonyl]amino]-2-hydroxy-4-phenylbutyl]amino]-2-hydroxy-1-8 [4-(2-methoxyethoxy)phenyl]methyl]propyl]carbamic acid, 2-hydroxy-1,1-dimethylethyl ester] | 100% | 110 nM |  | 
11 | CC(C)[C@H](NC(=O)OC[C@H](O)CO)C(=O)N[C@@H](Cc1ccccc1)[C@H](O)CNC[C@@H](O)[C@H](Cc1ccccc1)NC(=O)OC(C)(C)C (relative stereo) [Compound 219, [[1R*,2S*(2S*,3R*)],N^2-(S*)]-N^2-[(2,3-Dihydroxypropoxy)carbonyl]-N-[3-[[3-[[(1,1-dimethylethoxy)carbonyl]-amino]-2-hydroxy-4-phenylbutyl]amino]-2-hydroxy-1-(phenylmethyl)propyl]-L-valinamide] | 86% | 35000 nM |  | 
12 | CC(C)(C)OC(=O)N[C@@H](Cc1ccccc1)[C@H](O)CNC[C@@H](O)[C@H](Cc1ccccc1)NC(=O)OC(C)(C)CNC=O [Compound 236, [1S-(1R*,2S*)]-[Iminobis[2-hydroxy-1-(phenylmethyl)-3,1-propanediyl]]biscarbamic acid, 2-(formylamino)-1,1-dimethylethyl 1,1-dimethylethyl ester] | 89% | 700 nM |  | 
13 | CC(C)[C@H](NC(=O)CCc1c[nH]c2ccccc12)C(=O)N[C@@H](Cc1ccccc1)[C@H](O)CNC[C@@H](O)[C@H](Cc1ccccc1)NC(=O)OC(C)(C)C (relative stereo) [Compound 260, [1R*,2S*(2S*,3R*)]-N-[3-[[3-[[(1,1-Dimethylethoxy)carbonyl]amino]-2-hydroxy-4-phenylbutyl]amino]-2-hydroxy-1-(phenylmethyl)propyl]-N^2-[3-(1H-indol-3-yl)-1-oxo-propyl]-L-valinamide] | 100% | 290 nM |  | 
14 | CC(C)(C)OC(=O)N[C@@H](Cc1ccccc1)[C@H](O)CNC[C@@H](O)[C@H](Cc1ccccc1)NC(=O)O[C@@H]1CCc2ccccc21 [Compound 145, [1S-(1R*,2S*)]-[Iminobis[2-hydroxy-1-(phenylmethyl)-3,1-propanediyl)]biscarbamic acid, 1,1-dimethylethyl(R)-2,3-dihydro-1H-inden-1-yl ester] | 95% | > 2200 nM |  | 
15 | CC(C)[C@H](NC(=O)CCC(=O)Nc1ccccc1)C(=O)N[C@@H](Cc1ccccc1)[C@H](O)CNC[C@@H](O)[C@H](Cc1ccccc1)NC(=O)OC(C)(C)C (relative stereo) [Compound 204, [1R*,2S*(2S*,3R*)]-N-[3-[[3-[[(1,1-Dimethylethoxy)carbonyl]amino]-2-hydroxy-4-phenylbutyl]amino]-2-hydroxy-1-(phenylmethyl)propyl]-N^2-[[1,4-dioxo-4-(phenylamino)butyl]-L-valinamide] | 99% | 170 nM |  | 
16 | CC(C)(C)[C@@](C)(O)C(=O)N[C@@H](Cc1ccccc1)[C@H](O)CNC[C@@H](O)[C@H](Cc1ccccc1)NC(=O)[C@](C)(O)C(C)(C)C [Compound 344, [2R-[R*(R*,S*)]]-N,N'-[Iminobis[2-hydroxy-l-(phenylmethyl)-3,1-propanediyl]]bis[2-hydroxy-2,3,3-trimethylbutaneamide]] | 99% | 30 nM |  | 
17 | CNC(=O)N(C)[C@H](C(=O)N[C@@H](Cc1ccccc1)[C@H](O)CNC[C@@H](O)[C@H](Cc1ccccc1)NC(=O)OC(C)(C)C)C(C)(C)C (relative stereo) [Compound 342, [1R*,2S* (2S*, 3R*)]-N-[3-[[3-[[(1,1-Dimethylethoxy)carbonyl]amino]-2-hydroxy-4-phenylbutyl]amino]-2-hydroxy-1-(phenylmethyl)propyl]-N^2-[(methylamino)carbonyl]-N^2-3-dimethyl-L-valinamide] | 99% | 70 nM |  | 
18 | CC(C)(C)OC(=O)N[C@@H](Cc1ccccc1)[C@H](O)CNC[C@@H](O)[C@H](Cc1ccccc1)NC(=O)OCCO [Compound 241, [R-(R*,S*)]-[Iminobis[2-hydroxy-1-(phenylmethyl)-3,1-propanediyl)]biscarbamic acid, 1,1-dimethylethyl-2-hydroxyethyl ester] | 95% | 280 nM |  | 
19 | CC(C)(C)OC(=O)N[C@@H](CC1CCCCC1)[C@H](O)CNC[C@@H](O)[C@H](CC1CCCCC1)NC(=O)OC(C)(C)C [Compound 14, [R-(R*,S*)]-[Iminobis[1-(cyclohexylmethyl)-2-hydroxy-3,1-propanediyl]]-biscarbamic acid, bis(1,1-dimethylethyl) ester] |  | 1100 nM |  | 100%
